Laboratory results taken from patent US7521540B2, “CYR61 compositions and methods” (Munin Corporation, priority 1996, dated 2009).
Where “and” joins values, the source holds several entries; their conditions need not be identical. Equal entries are not always repeated.

Key:
endothelial cells [1] = assay: Peptide inhibition of cell adhesion to Cyr61, endothelial cells; type: cell-based
Excerpt: (§1) To localize the relevant domain still further, several overlapping peptides were synthesized. The peptides, each having a sequence set forth in one of SEQ ID NOS:33-38, show significant similarity to an ECM signaling molecule such as mouse Cyr61 (SEQ ID NO:2) or human Cyr61 (SEQ ID NO:4). These peptides were then separately tested for their capacities to inhibit Cyr61 adhesion to endothelial cells or fibroblasts. Peptides were separately added at various concentrations to Cyr61-coated wells containing endothelial cells or fibroblasts, as described above. The peptide designated TSP1 (SEQ ID NO:33) inhibited Cyr61 adhesion to endothelial cells or fibroblasts at concentrations of 25 μM or higher.
To determine if TSP1 was selectively inhibiting Cyr61 binding to […] or α6β1, two integrins found on endothelial cells that bind Cyr61, specific monoclonal antibody blocking studies were performed. These studies involved the separate addition of monoclonal antibody GoH3 (α6-specific, including α6β1; see Example 29) or LM609 ([…]; see Example 29) to cells prior to addition of the mixture to Cyr61-coated wells in the presence or absence of the peptide under study.

fibroblasts [2] = assay: Peptide inhibition of cell adhesion to Cyr61, fibroblasts; type: cell-based; settings: Cyr61-coated wells
Excerpt: as §1

endothelial cells [3] = assay: Matrigel tubule formation assay; type: cell-based
Experimental: Endothelial cells interacting with Cyr61 require integrin αVβ3 for cell migration and cell survival. However, to form tubules in vitro in a matrigel, integrin α6β1 is required. Thus, the ability of TSP1 to inhibit tubule formation in vitro using a matrigel assay as described in Example 15 (and as known in the art, Davis et al., Exp. Cell Research 216:113-123 (1995), incorporated herein by reference in its entirety) was performed.

endothelial cells [4] = assay: Adhesion to immobilized peptides or GST-domain fusions, endothelial cells; type: cell-based; settings: no immobilized Cyr61
Excerpt: (§2) To further localize domains involved in angiogenesis, including endothelial cell migration, the coding regions for domains I, II and III of Cyr61 were separately fused to a coding sequence for glutathione S-transferase (GST), again using conventional technology. The individual fusion constructs were introduced into bacterial hosts, expressed, and purified with glutathione columns, using conventional techniques.
(§3) To confirm that the TSP1 peptide was inhibiting Cyr61 activity by directly interacting with the α6β1, integrin, TSP1 and the peptides collectively having SEQ ID NOS:34-38 were used in the aforementioned cell adhesion assay in the absence of immobilized Cyr61. In these assays, wells were coated with one of the peptides and the immobilized peptides were then separately exposed to either endothelial cells (resting or activated) or fibroblasts. […] None of the other tested peptides (having SEQ ID NOS:34-38, collectively) supported cell adhesion in these assays. However, it is expected that peptides comprising sequences from domain II (von Willebrand Factor domain) of Cyr61 will inhibit the interaction between Cyr61 and the αVβ3 integrin receptor, thereby inhibiting the participation of endothelial cells in the process of angiogenesis. […]

fibroblasts [5] = assay: Adhesion to immobilized peptides or GST-domain fusions, fibroblasts; type: cell-based; settings: no immobilized Cyr61
Excerpt: as §2, §3

HUVE cells = assay: HUVE cell attachment to murine Cyr61-coated plates; type: cell-based, human
Experimental: Another embodiment of the invention is directed to the use of Cyr61 to mediate cellular attachment to the extracellular matrix. Induction of cellular adhesion was investigated using murine Cyr61, fibronectin, and bovine serum albumin (BSA). Immunological 96-well plates (Falcon brand) were coated with 50 μl of 0.1% BSA in PBS at 4° C. in the presence of 0-30 μg/ml concentrations of murine Cyr61 or fibronectin. After two hours exposure to the coating solution, non-diluted immune or pre-immune antisera (30 μl/well), or affinity-purified anti-Cyr61 antibodies were added. For some wells, the coating mixture was adjusted to 10 mM DTT or 100 mM HCl. After 16 hours incubation, the coating solution was removed and the well surface was blocked with 1% BSA in phosphate-buffered saline (PBS) for 1 hour at room temperature. HUVE cells were plated in Ham's complete F12K medium [GIBCO-BRL, Inc.; Ham, Proc. Natl. Acacd. Sci. (USA) 53:786 (1965)] at 5×10^3-10^4 cells/well. Cycloheximide was added to 100 μg/ml immediately before plating and monensin was added to 1 μM 14 hours before plating. After a 2-hour incubation at 37° C., the wells were washed with PBS and attached cells were fixed and stained with methylene blue. The attachment efficiency was determined by quantitative dye extraction and measurement of the extract absorbance at 650 nm. Oliver et al., J. Cell. Sci. 92:513-518 (1989).

Limb mesenchymal cells [6] = assay: Limb bud mesenchymal cell attachment; type: cell-based, mouse; settings: within 1 hour of plating
Experimental: Cyr61, fibronectin (Gibco), or tenascin (Gibco) were diluted in 0.1% protease-free bovine serum albumin (BSA) in PBS with 0.5 mM PMSF, to a final concentrations of 10 or 50 μg/ml. A 10 μl drop/well was placed in a non-tissue culture treated 24-well plate (Corning), and incubated at room temperature for 2 hours. The wells were blocked with 1% BSA in PBS for 1 hour at room temperature, and rinsed with serum-free MEM (Modified Eagle's Medium). Limb mesenchymal cells, suspended at 5×10^5 cell/ml in serum-free MEM, were added at a volume of 400 μl/well, and incubated at 37° C., 5% CO2 for 1 or 3 hours. At each time point, the cell suspension was removed, the wells were rinsed with MEM and the remaining adherent cells were photographed.

[7] = system: 1064SK primary human foreskin fibroblasts; assay: Fibroblast adhesion assay (methylene blue, A620); type: cell-based
Experimental: The ability of Cyr61 to mediate cell adhesion in normal fibroblasts was investigated. Microtiter wells were coated with purified recombinant Cyr61 protein, and 1064SK primary human foreskin fibroblasts were allowed to adhere under serum-free conditions. […] 50 μl cell suspensions were plated on microtiter wells coated with varying concentrations (0.5-5.0 μg/ml) of Cyr61 protein. After incubation at 37° C. for 30 minutes, adherent cells were fixed and stained with methylene blue.
In another experiment, microtiter wells were coated with either BSA, Cyr61 (2 μg/ml), or vitronectin (VN; 0.5 μg/ml) and blocked with affinity-purified anti-Cyr61 antibodies for one hour at 37° C. before 1064SK cells were plated.
The effects of divalent cations in cell adhesion to Cyr61 was also investigated. […] Data are means from triplicate determinations. […] Inhibition by Ca^2+ is characteristic of adhesion through some members of the β1 family of integrins, including receptors that bind type I collagen, laminin, and vitronectin (integrins α2β1, α6β1, and αVβ1) in fibroblasts, as well as the lymphocyte-specific integrin αLβ2.
The effects of RGD peptides on Cyr61-mediated fibroblast binding was tested by plating cells in wells coated with Cyr61 (2 μg/ml). Type I collagen (2 μg/ml) or vitronectin (0.5 μg/ml), 2 mM GRGDSP or GRGESP peptide was then added.
Cells were also pre-incubated with 40 μg/ml monoclonal antibodies against the integrin α5 or the integrin αV subunits at room temperature for 30 minutes, then plated on wells coated with Cyr61 (2 μg/ml), vitronectin (0.5 μg/ml) or fibronectin (FN, 1 μg/ml). […] The data are means, representative of three experiments.
The 1064 SK cells were also analyzed using the monoclonal antibody JBIA, which binds the β1 integrin subunit. Cells were pre-incubated with the antibody (50 μg/ml) before plating on microtiter wells coated with Cyr61 (2 μg/ml), Type I collagen (2 μg/ml), or vitronectin (0.5 μg/ml). […] Data are means, representative of three experiments.
To identify the specific β1 integrin that mediates fibroblast adhesion to Cyr61, the inhibitory effects of function-blocking monoclonal antibodies were tested against various integrin α subunits. […] The data are means, representative of at least three experiments.

endothelial cells [8] = settings: thrombospondin on endothelial cells; fibronectin cell type not stated; cited from earlier work
[9] = system: Bovine aortic smooth muscle cells (BASM cells); assay: Smooth muscle cell adhesion assay; type: cell-based
Experimental: Cell adhesion assays were also performed on smooth muscle cells. Bovine aortic smooth muscle cells (BASM cells) were subjected to the cell adhesion assay described above in the context of assaying fibroblasts. […] To identify particular integrin, receptors mediating the Cyr61 induction of BASM cell adhesion, antibody studies were conducted using anti-integrin antibodies recognizing specific integrins. […] Thus, integrin α6β1 mediates Cyr61-induced adhesion of smooth muscle cells. It is expected that Cyr61 polypeptides that include the heparan binding domain IV will induce adhesion of any mammalian smooth muscle cell.

Limb mesenchymal cells [10] = settings: 10 μg/ml, literature; cited from earlier work

## H 2N-GQKCIVQTTSWSQCSKS-CO2H (H-GQKCIVQTTSWSQCSKS-OH; cysteine pairing not given here) [TSP1]
Endothelial cells [1]; Cyr61-coated wells
  concentration inhibiting Cyr61 adhesion to endothelial cells: ≥ 25 µM
Endothelial cells [1]; GoH3/LM609 blocking studies
  effect on Cyr61 binding to the α6β1 integrin: inhibitied Cyr61 binding to the α6β1 integrin
  effect on Cyr61 binding to αVβ3: did not inhibit Cyr61 binding to αVβ3
Fibroblasts [2]
  concentration inhibiting Cyr61 adhesion to fibroblasts: ≥ 25 µM
Endothelial cells [3]
  tubule formation in matrigel: inhibited tubule formation
Endothelial cells [4]
  adhesion of endothelial cells to immobilized peptide or fusion: supported adhesion of endothelial cells and fibroblasts
Fibroblasts [5]
  adhesion of fibroblasts to immobilized peptide or fusion: supported adhesion of endothelial cells and fibroblasts

## fibronectin
HUVE cells; coating 1 μg/ml
  HUVE cell attachment, A650: 0.1 A650
HUVE cells; coating 30 μg/ml
  HUVE cell attachment, A650: 0.9 A650
Limb mesenchymal cells [6]
  attachment morphology of limb mesenchymal cells: attached uniformly and started to spread
[7]; Cyr61 2, VN 0.5, Type I collagen 2, fibronectin 1, laminin 5 μg/ml
  1064SK adhesion to coated protein, nothing added: 0.72 A620 and 0.74 A620
Endothelial cells [8]
  concentration with chemotactic effect: 1 to 30 µg/mL

## heparin
[7]; fibronectin 1 μg/ml
  levels having no effect on cell adhesion to fibronectin: up to 1000 μg/ml
[7]; soluble, in cell suspension
  level completely inhibiting cell adhesion to Cyr61: ≥ 0.1 µg/mL
  level that detectably inhibited binding to Cyr61: 1 ng/mL
[9]
  effect of agent on Cyr61-induced BASM cell adhesion: inhibited Cyr61-induced adhesion
Limb mesenchymal cells [10]
  increase of chondrogenesis in micromass cultures: 2 fold
